Experimental data: US8063071B2 (GlaxoSmithKline, LLC, priority 2007, dated 2011)
Where a name gives a salt, the structure may show the parent alone.

Experiments:
[1] = biological target: T1, Recombinant human IKKβ (residues 1-737) (Homo sapiens, UniProt O14920); experiment: IKK2 assay (TR-FRET); type: biochemical; details: ATP 1 μM final, read-out: pIC50 against IKK2 (converted)
T1 construct: Recombinant human IKKβ (residues 1-737); GST (C); made in house
T1 sequence (O14920 1-737): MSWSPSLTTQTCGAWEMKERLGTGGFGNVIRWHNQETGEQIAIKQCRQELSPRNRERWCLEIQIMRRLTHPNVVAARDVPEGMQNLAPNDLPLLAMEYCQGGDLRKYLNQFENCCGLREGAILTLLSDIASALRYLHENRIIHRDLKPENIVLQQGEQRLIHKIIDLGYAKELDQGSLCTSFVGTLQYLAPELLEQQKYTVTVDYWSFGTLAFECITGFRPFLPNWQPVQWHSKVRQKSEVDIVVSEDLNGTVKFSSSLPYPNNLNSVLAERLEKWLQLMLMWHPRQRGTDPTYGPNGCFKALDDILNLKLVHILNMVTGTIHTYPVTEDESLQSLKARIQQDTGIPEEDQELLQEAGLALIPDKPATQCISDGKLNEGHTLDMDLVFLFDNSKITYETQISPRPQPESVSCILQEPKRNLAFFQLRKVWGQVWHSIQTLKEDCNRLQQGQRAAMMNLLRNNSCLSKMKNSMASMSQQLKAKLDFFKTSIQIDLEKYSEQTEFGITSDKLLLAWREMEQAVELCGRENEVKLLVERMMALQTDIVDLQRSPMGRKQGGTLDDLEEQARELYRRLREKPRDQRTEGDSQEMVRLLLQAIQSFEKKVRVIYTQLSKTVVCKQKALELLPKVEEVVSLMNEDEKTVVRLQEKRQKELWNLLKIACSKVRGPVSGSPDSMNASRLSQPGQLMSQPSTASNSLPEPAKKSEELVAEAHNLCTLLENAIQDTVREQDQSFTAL
In short: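 TR-FRET readout (665 nm over 620 nm Eu reference) of GST-IB Ser32/36 phosphorylation after 60 min detection. Reaction: 1 μM ATP, 25 nM substrate, 0.5-5 nM GST-fused IKKβ 1-737 from baculovirus, pH 7.4 HEPES buffer, 1.7% DMSO, 15 min room temperature, EDTA-terminated.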

[2] = test system: human monocyte stimulated cytokine production (TNF-α); experiment: Monocyte assay (LPS-stimulated TNF-α production); type: cell-based; details: for IC50: 24 h, 200 ng/mL LPS, TNF-α by ELISA; for inhibition at 0.3 µM: read-out: inhibition at 300 nM in the monocyte assay
In short: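 TNF-α release was measured by ELISA after 24 hrs at 37 C. Cells were stimulated with 200 ng/mL E. coli LPS, with compound added 30 minutes beforehand (0.1% DMSO vehicle). Cells were Ficoll/MACS-isolated CD14+ human monocytes adhered at 1×10^6 cells/mL, and viability was checked by trypan blue.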

| SMILES | IC50 [1] | IC50 [2] | inhibition at 0.3 µM [2] |
| --- | --- | --- | --- |
| CCS(=O)(=O)N1CCC(c2c[nH]c3c(C(N)=O)cc(-c4ccc(CN[C@@H](C)C(C)(C)C)s4)cc23)CC1 [Example 200, 3-[1-(ethylsulfonyl)-4-piperidinyl]-5-[5-({[(1S)-1,2,2-trimethylpropyl]amino}methyl)-2-thienyl]-1H-indole-7-carboxamide] | ≤ 10 µM | > 1 µM | – |
| CCOC(=O)CN(C)Cc1cc(-c2cc(C(N)=O)c3[nH]cc(C4CCN(S(=O)(=O)CC)CC4)c3c2)cs1 [Example 434, ethyl N-[(4-[7-(aminocarbonyl)-3-[1-(ethylsulfonyl)-4-piperidinyl]-1H-indol-5-yl]-2-thienyl)methyl]-N-methylglycinate] | ≤ 10 µM | ≤ 1.5 µM | – |
| CCS(=O)(=O)N1CCC(c2c[nH]c3c(C(N)=O)cc(-c4cccc(C5CCCN5)c4)cc23)CC1 (stereo not shown) [Example 332, 3-[1-(ethylsulfonyl)-4-piperidinyl]-5-[3-(2-pyrrolidinyl)phenyl]-1H-indole-7-carboxamide trifluoroacetate] | ≤ 10 µM | ≤ 1.5 µM | – |
| CCC(C)(C)N(C)Cc1cc(-c2cc(C(N)=O)c3[nH]cc(C4CCN(S(=O)(=O)CC)CC4)c3c2)cs1 [Example 412, 5-{5-[(1,1-dimethylpropyl)(methyl)amino]methyl}-3-thienyl)-3-[1-(ethylsulfonyl)-4-piperidinyl]-1H-indole-7-carboxamide trifluoroacetate] | ≤ 10 µM | ≤ 1.5 µM | – |
| CCS(=O)(=O)N1CCC(c2c[nH]c3c(C(N)=O)cc(-c4cccc(CNS(=O)(=O)c5cc(F)ccc5C)c4)cc23)CC1 [Example 377, 3-[1-(ethylsulfonyl)-4-piperidinyl]-5-[3-({[(5-fluoro-2-methylphenyl)sulfonyl]amino}methyl)phenyl]-1H-indole-7-carboxamide] | ≤ 10 µM | > 1 µM | – |
| CCS(=O)(=O)N1CCC(c2c[nH]c3c(C(N)=O)cc(-c4cc(F)cc(CNCc5ccc(C)o5)c4)cc23)CC1 [Example 330, 3-[1-(ethylsulfonyl)-4-piperidinyl]-5-[3-fluoro-5-({[(5-methyl-2-furanyl)methyl]amino}methyl)phenyl]-1H-indole-7-carboxamide trifluoroacetate] | ≤ 10 µM | > 1 µM | – |
| CCS(=O)(=O)N1CCC(c2c[nH]c3c(C(N)=O)cc(-c4csc(CN(C)CCC#N)c4)cc23)CC1 [Example 43, 5-(5-{[(2-cyanoethyl)(methyl)amino]methyl}-3-thienyl)-3-[1-(ethylsulfonyl)-4-piperidinyl]-1H-indole-7-carboxamide trifluoroacetate] | ≤ 10 µM | ≤ 1.5 µM | – |
| CCS(=O)(=O)N1CCC(c2c[nH]c3c(C(N)=O)cc(-c4coc(CN5CCCC5)c4)cc23)CC1 [Example 247, 3-[1-(ethylsulfonyl)-4-piperidinyl]-5-[5-(1-pyrrolidinylmethyl)-3-furanyl]-1H-indole-7-carboxamide trifluoroacetate] | ≤ 10 µM | ≤ 1.5 µM | – |
| CCS(=O)(=O)N1CCC(c2c[nH]c3c(C(N)=O)cc(-c4csc(CN(C)Cc5cccnc5)c4)cc23)CC1 [Example 84, 3-[1-(ethylsulfonyl)-4-piperidinyl]-5-(5-{[methyl(3-pyridinylmethyl)amino]methyl}-3-thienyl)-1H-indole-7-carboxamide trifluoroacetate] | ≤ 10 µM | – | 0 to 60% |
| CCS(=O)(=O)N1CCC(c2c[nH]c3c(C(N)=O)cc(-c4ccc(CNCCCOC)s4)cc23)CC1 [Example 194, 3-[1-(ethylsulfonyl)-4-piperidinyl]-5-[5-({[3-(methyloxy)propyl]amino}methyl)-2-thienyl]-1H-indole-7-carboxamide] | ≤ 10 µM | > 1 µM | – |
| CCS(=O)(=O)N1CCC(c2c[nH]c3c(C(N)=O)cc(-c4csc(CN(C)Cc5ccncn5)c4)cc23)CC1 [Example 85, 3-[1-(ethylsulfonyl)-4-piperidinyl]-5-(5-{[methyl(4-pyrimidinylmethyl)amino]methyl}-3-thienyl)-1H-indole-7-carboxamide trifluoroacetate] | ≤ 10 µM | – | 0 to 60% |
| CCS(=O)(=O)N1CCC(c2c[nH]c3c(C(N)=O)cc(-c4cccc(CNS(=O)(=O)c5ccc(Cl)cc5)c4)cc23)CC1 [Example 372, 5-[3-({[(4-chlorophenyl)sulfonyl]amino}methyl)phenyl]-3-[1-(ethylsulfonyl)-4-piperidinyl]-1H-indole-7-carboxamide] | ≤ 10 µM | ≤ 1.5 µM | – |
| CCCCNCc1cc(-c2cc(C(N)=O)c3[nH]cc(C4CCN(S(=O)(=O)CC)CC4)c3c2)cs1 [Example 121, 5-{5-[(butylamino)methyl]-3-thienyl}-3-[1-(ethylsulfonyl)-4-piperidinyl]-1H-indole-7-carboxamide trifluoroacetate] | ≤ 10 µM | ≤ 1.5 µM | – |
| CCS(=O)(=O)N1CCC(c2c[nH]c3c(C(N)=O)cc(-c4ccc(CNCCC(C)C)s4)cc23)CC1 [Example 190, 3-[1-(ethylsulfonyl)-4-piperidinyl]-5-(5-{[(3-methylbutyl)amino]methyl}-2-thienyl)-1H-indole-7-carboxamide] | ≤ 10 µM | – | 0 to 60% |
| CCC(CC)NCc1cccc(-c2cc(C(N)=O)c3[nH]cc(C4CCN(S(=O)(=O)CC)CC4)c3c2)c1 [Example 26, 5-(3-{[(1-ethylpropyl)amino]methyl}phenyl)-3-[1-(ethylsulfonyl)-4-piperidinyl]-1H-indole-7-carboxamide] | ≤ 10 µM | ≤ 1.5 µM | – |
| CCS(=O)(=O)N1CCC(c2c[nH]c3c(C(N)=O)cc(-c4cccc(CNC)c4)cc23)CC1 [Example 28, 3-[1-(ethylsulfonyl)-4-piperidinyl]-5-{3-[(methylamino)methyl]phenyl}-1H-indole-7-carboxamide] | ≤ 10 µM | ≤ 1.5 µM | – |
| CCS(=O)(=O)N1CCC(c2c[nH]c3c(C(N)=O)cc(-c4cccc(CNCc5ccc(C)o5)c4)cc23)CC1 [Example 305, 3-[1-(ethylsulfonyl)-4-piperidinyl]-5-[3-({[(5-methyl-2-furanyl)methyl]amino}methyl)phenyl]-1H-indole-7-carboxamide trifluoroacetate] | ≤ 10 µM | ≤ 1.5 µM | – |
| CCS(=O)(=O)N1CCC(c2c[nH]c3c(C(N)=O)cc(-c4ccc(CNC)s4)cc23)CC1 [Example 103, 3-[1-(ethylsulfonyl)-4-piperidinyl]-5-{5-[(methylamino)methyl]-2-thienyl}-1H-indole-7-carboxamide] | ≤ 10 µM | ≤ 1.5 µM | – |
| CCC(CC)CNCc1ccc(-c2cc(C(N)=O)c3[nH]cc(C4CCN(S(=O)(=O)CC)CC4)c3c2)s1 [Example 192, 5-(5-{[(2-ethylbutyl)amino]methyl}-2-thienyl)-3-[1-(ethylsulfonyl)-4-piperidinyl]-1H-indole-7-carboxamide] | ≤ 10 µM | > 1 µM | – |
| CCS(=O)(=O)N1CCC(c2c[nH]c3c(C(N)=O)cc(-c4csc(CN(C)C5CCC5)c4)cc23)CC1 [Example 404, 5-(5-{[cyclobutyl(methyl)amino]methyl}-3-thienyl)-3-[1-(ethylsulfonyl)-4-piperidinyl]-1H-indole-7-carboxamide trifluoroacetate] | ≤ 10 µM | ≤ 1.5 µM | – |
| CCS(=O)(=O)N1CCC(c2c[nH]c3c(C(N)=O)cc(-c4cc(CN5CCC[C@H]5COC)cs4)cc23)CC1 [Example 215, 3-[1-(ethylsulfonyl)-4-piperidinyl]-5-[4-({(2S)-2-[(methyloxy)methyl]-1-pyrrolidinyl}methyl)-2-thienyl]-1H-indole-7-carboxamide trifluoroacetate] | ≤ 10 µM | ≤ 1.5 µM | – |
| CCN(CC)Cc1ccc(-c2cc(C(N)=O)c3[nH]cc(C4CCN(S(=O)(=O)CC)CC4)c3c2)s1 [Example 242, 5-{5-[(diethylamino)methyl]-2-thienyl}-3-[1-(ethylsulfonyl)-4-piperidinyl]-1H-indole-7-carboxamide trifluoroacetate] | ≤ 10 µM | ≤ 1.5 µM | – |
| CCS(=O)(=O)N1CCC(c2c[nH]c3c(C(N)=O)cc(-c4cccc(CN5CC(C)OC(C)C5)c4)cc23)CC1 (stereo not shown) [Example 9, 5-{3-[(2,6-dimethyl-4-morpholinyl)methyl]phenyl}-3-[1-(ethylsulfonyl)-4-piperidinyl]-1H-indole-7-carboxamide] | ≤ 10 µM | ≤ 1.5 µM | – |
